Measured values from paper PMC12373846, “Hemoglobin as a pseudoperoxidase and drug target for oxidative stress-related diseases” (Signal Transduction and Targeted Therapy, 2025).
Read-outs that look alike come from different tables or passages of the source.

Assays:
[1] = tested on: SOD1^G93A mice; assay: Immunohistochemistry of ventral spinal cord, SOD1^G93A mice; format: in vivo, mouse; details: SOD1+KDS
Procedure: SOD1^G93A mice (B6SJL-Tg(SOD1*G93A)1Gur/J) were purchased from Jackson Laboratory (strain number 002726) and used in the ALS mouse model. The mice were divided into four groups: Control, SOD1, and KDS12025 (1 and 10 mg/kg/day). Starting at 10 weeks of age, KDS12025 was administered via ad libitum drinking water at doses of 1 mg/kg/day and 10 mg/kg/day. The control and SOD1 groups received standard drinking water. Motor function was evaluated weekly via the rotarod performance test, and the ratio of running time was normalized to that of littermate controls to assess motor coordination and endurance over time. Survival of the mice was monitored for up to 24 weeks, and median survival times were calculated for each group.
The mice were deeply anesthetized with 2% isoflurane and positioned on the operating table. […] A series of fluorescence images were obtained with an LSM900 (Zeiss, Germany) confocal microscope or Lattice SIM Elyra 7 (Zeiss, Germany). […] This analysis quantified the intersections of GFAP-labeled processes within each circle, calculating the ramification index and ending radius, enabling the evaluation of astrocytic hypertrophy and morphological changes, as previously described.[78] In the focal GiD mouse model, NeuN-positive CA1 pyramidal neurons were quantified within a 50 × 50 μm^2 region via ImageJ to determine the number of CA1 pyramidal neurons.

[2] = In vivo pharmacokinetics (IV, PO); details: male, ICR, mouse, plasma, mice
Procedure: In vivo pharmacokinetic studies of KDS12025 were conducted by Medicilon (Shanghai, China). For both intravenous (IV) and oral (PO) administration, the compound was dissolved in a vehicle consisting of 10% Solutol and 90% distilled water. Male ICR mice (n = 4 per group) were fasted overnight and allowed access to food 4 h post-dosing, with water provided ad libitum. Following administration, blood samples (0.03 mL per time point) were collected via the submandibular vein. Samples were transferred to tubes containing sodium heparin and centrifuged at 6,800 x g for 6 min at 2–8 °C. Plasma was separated, transferred to Eppendorf tubes, and internal standard (IS: 10 ng/mL verapamil) was added. After vortexing for 1 min and centrifugation at 18,000 x g for 7 min, the supernatant was analyzed by liquid chromatography–tandem mass spectrometry (LC-MS/MS; TQ5500 Triple Quad, SCIEX). Pharmacokinetic parameters including area under the curve (AUC0–t and AUC0–∞), elimination half-life (t1/2), maximum plasma concentration (Cmax), and time to reach maximum concentration (Tmax) were calculated using noncompartmental analysis in Phoenix WinNonlin 7.0 (Pharsight, USA), an FDA-certified pharmacokinetic software.

[3] = tested on: CAT; assay: ROS-Glo H2O2 assay with CAT; format: biochemical
Procedure: Hb (Sigma‒Aldrich, H7379), H2O2 (Sigma‒Aldrich, H1009), and Amplex Red reagents (Invitrogen, A12222) were obtained for the study. A 4 μM H2O2 solution was prepared in 50 mM sodium phosphate buffer (pH 7.2). Then, 49 μl of this mixture was mixed with 1 μl of the test compound in DMSO or distilled water. The mixture was combined with an assay mixture of Amplex Red reagent (20 mM stock to 0.1 mM) and HRP (200 U/ml stock to 0.2 U/ml) and added to the wells at 50 μl/well. After a 60-min incubation at 37 °C, resorufin production was quantified via a microplate fluorescence reader (SpectraMax iD5, Molecular Devices) at ex/em = 535/580 nm. The H2O2-decomposing activity was estimated via the following equation: (sample fluorescence-blank fluorescence)/(control […]-blank fluorescence) × 100. For the ROS-Glo assay, the H2O2 substrate solution and ROS-Glo detection solution were prepared according to the manufacturer’s instructions. 10 μM H2O2 and drugs were prepared as in the Amplex Red assay, with HRP, Hb, CAT, or GPx added as needed. […] Luminescence was measured via iD5 microplate readers. The H2O2-decomposing activity was estimated via the following equation: (sample luminescence-blank luminescence)/(control luminescence-blank luminescence) × 100. The U/ml was calculated on the basis of the amount of H2O2 reduced by Hb during the reaction, using μg/ml and U/mg.

SMILES	Hbβ in GFAP-positive astrocytes, ventral spinal cord ([1]; Fig. S15b)	Hbβ in NeuN-positive neurons, ventral spinal cord ([1]; Fig. S15d)	bioavailability ([2]; 5 mg/kg IV and 30 mg/kg PO, read-out: F (bioavailability)) [%]	AUC ([2]; 5 mg/kg IV, read-out: AUCall, IV) [ng·h/mL]	half-life ([2]; 5 mg/kg IV, read-out: t1/2, IV (converted)) [min]	AUC ([2]; 30 mg/kg PO, read-out: AUCall, PO) [ng·h/mL]	Cmax ([2]; cell spans IV and PO heads, probably 30 mg/kg PO) [ng/mL]	effect on CAT activity [3]
CNc1ccc(NCCc2ccccc2OC)cc1.Cl [KDS12025, N^1-(2-methoxyphenethyl)-N^4-methylbenzene-1,4-diamine hydrochloride salt]	Control (2194±76.5, n=25), SOD1 (1209±54.8, n=31), SOD1+KDS (2557±108.6, n=37) One-way ANOVA with Tukey's multiple comparisons test, F(2,90) = 65.01, p < 0.001 Control vs. SOD1, p < 0.001; Control vs. SOD1+KDS, p = 0.02; SOD1 vs. SOD1+KDS, p < 0.001	Control (1961±96.1, n=22), SOD1 (1183±89.9, n=19), SOD1+KDS (2326±85.3, n=17) One-way ANOVA with Tukey's multiple comparisons test, F(2,55) = 38.14, p < 0.001 Control vs. SOD1, p < 0.001; Control vs. SOD1+KDS, p = 0.02; SOD1 vs. SOD1+KDS, p < 0.001	87.4	687 ± 118	57.6 ± 5.4	3600 ± 662	2310 ± 344	–
O=C(O)c1cc(NCCc2ccc(C(F)(F)F)cc2)ccc1O [HTPEB, 2-hydroxy-5-[2-(4-trifluoromethyl-phenyl)-ethylamino]-benzoic acid, reference compound]	–	–	–	–	–	–	–	did not increase
